In the supplement of paper PMC10307832:

Tests used:
Assay in all cases: relative viability (nuclei count vs DMSO), 5 days (fraction); higher = more cells survive
[1] = compound: CCN(CCO)CCCC(C)Nc1ccnc2cc(Cl)ccc12 [Hydroxychloroquine] + CS(=O)(=O)CCNCc1ccc(-c2ccc3ncnc(Nc4ccc(OCc5cccc(F)c5)c(Cl)c4)c3c2)o1 [Lapatinib] (partner 2 µM)
Summary of the method: (§1)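 Relative viability was taken as the ratio of nuclei in treated wells to nuclei in vehicle wells. Lung cancer cell lines in 1536-well plates received compounds by pin tool one day after seeding, either one drug alone or a fixed anchor-drug dose plus five library-drug doses (not always all listed) in √10 steps. Nuclei were counted on 4× images after 5 days of treatment, and values are medians of duplicate plates.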

[2] = compound: CCN(CCO)CCCC(C)Nc1ccnc2cc(Cl)ccc12 [Hydroxychloroquine] + CCNC(=O)c1noc(-c2cc(C(C)C)c(O)cc2O)c1-c1ccc(CN2CCOCC2)cc1 [Luminespib] (partner 0.01 µM)
Summary of the method: as §1

[3] = compound: CCN(CCO)CCCC(C)Nc1ccnc2cc(Cl)ccc12 [Hydroxychloroquine] + O=C(c1cc(Cc2n[nH]c(=O)c3ccccc23)ccc1F)N1CCN(C(=O)C2CC2)CC1 [Olaparib] (partner 8 µM)
Summary of the method: as §1

[4] = compound: CCN(CCO)CCCC(C)Nc1ccnc2cc(Cl)ccc12 [Hydroxychloroquine] + Nc1ncn([C@H]2C[C@H](O)[C@@H](CO)O2)c(=O)n1 [Decitabine] (partner 2 µM)
Summary of the method: as §1

NCI-H2009
relative viability ([1]; first compound 0.5 µM): 0.909
relative viability ([1]; first compound 1.581 µM): 0.826
relative viability ([1]; first compound 5 µM): 0.874
relative viability ([1]; first compound 15.81 µM): 0.898
relative viability ([1]; first compound 50 µM): 0.893
relative viability ([2]; first compound 0.5 µM): 0.94
relative viability ([2]; first compound 1.581 µM): 0.964
relative viability ([2]; first compound 5 µM): 1.09
relative viability ([2]; first compound 15.81 µM): 1.1
relative viability ([2]; first compound 50 µM): 0.999
relative viability ([3]; first compound 0.5 µM): 0.672
relative viability ([3]; first compound 1.581 µM): 0.72
relative viability ([3]; first compound 5 µM): 0.7
relative viability ([3]; first compound 15.81 µM): 0.698
relative viability ([3]; first compound 50 µM): 0.695
relative viability ([4]; first compound 0.5 µM): 0.353
relative viability ([4]; first compound 1.581 µM): 0.397
relative viability ([4]; first compound 5 µM): 0.403
relative viability ([4]; first compound 15.81 µM): 0.353
relative viability ([4]; first compound 50 µM): 0.377

NCI-H1651
relative viability ([1]; first compound 0.5 µM): 0.811
relative viability ([1]; first compound 1.581 µM): 0.925
relative viability ([1]; first compound 5 µM): 0.729
relative viability ([1]; first compound 15.81 µM): 0.979
relative viability ([1]; first compound 50 µM): 0.988
relative viability ([2]; first compound 0.5 µM): 0.843
relative viability ([2]; first compound 1.581 µM): 0.817
relative viability ([2]; first compound 5 µM): 0.89
relative viability ([2]; first compound 15.81 µM): 0.739
relative viability ([2]; first compound 50 µM): 0.963
relative viability ([3]; first compound 0.5 µM): 0.178
relative viability ([3]; first compound 1.581 µM): 0.193
relative viability ([3]; first compound 5 µM): 0.191
relative viability ([3]; first compound 15.81 µM): 0.18
relative viability ([3]; first compound 50 µM): 0.197
relative viability ([4]; first compound 0.5 µM): 0.626
relative viability ([4]; first compound 1.581 µM): 0.649
relative viability ([4]; first compound 5 µM): 0.652
relative viability ([4]; first compound 15.81 µM): 0.633
relative viability ([4]; first compound 50 µM): 0.509

NCI-H1666
relative viability ([1]; first compound 0.5 µM): 0.572
relative viability ([1]; first compound 1.581 µM): 0.483
relative viability ([1]; first compound 5 µM): 0.681
relative viability ([1]; first compound 15.81 µM): 0.61
relative viability ([1]; first compound 50 µM): 0.538
relative viability ([2]; first compound 0.5 µM): 1.02
relative viability ([2]; first compound 1.581 µM): 0.989
relative viability ([2]; first compound 5 µM): 0.981
relative viability ([2]; first compound 15.81 µM): 1.01
relative viability ([2]; first compound 50 µM): 0.923
relative viability ([3]; first compound 0.5 µM): 0.669
relative viability ([3]; first compound 1.581 µM): 0.727
relative viability ([3]; first compound 5 µM): 0.719
relative viability ([3]; first compound 15.81 µM): 0.749
relative viability ([3]; first compound 50 µM): 0.693
relative viability ([4]; first compound 0.5 µM): 0.707
relative viability ([4]; first compound 1.581 µM): 0.691
relative viability ([4]; first compound 5 µM): 0.759
relative viability ([4]; first compound 15.81 µM): 0.792
relative viability ([4]; first compound 50 µM): 0.635

NCI-H1734
relative viability ([1]; first compound 0.5 µM): 1.13
relative viability ([1]; first compound 1.581 µM): 0.99
relative viability ([1]; first compound 5 µM): 0.992
relative viability ([1]; first compound 15.81 µM): 1.05
relative viability ([1]; first compound 50 µM): 0.99
relative viability ([2]; first compound 0.5 µM): 0.179
relative viability ([2]; first compound 1.581 µM): 0.197
relative viability ([2]; first compound 5 µM): 0.199
relative viability ([2]; first compound 15.81 µM): 0.169
relative viability ([2]; first compound 50 µM): 0.183
relative viability ([3]; first compound 0.5 µM): 0.525
relative viability ([3]; first compound 1.581 µM): 0.601
relative viability ([3]; first compound 5 µM): 0.626
relative viability ([3]; first compound 15.81 µM): 0.616
relative viability ([3]; first compound 50 µM): 0.635
relative viability ([4]; first compound 0.5 µM): 0.486
relative viability ([4]; first compound 1.581 µM): 0.482
relative viability ([4]; first compound 5 µM): 0.459
relative viability ([4]; first compound 15.81 µM): 0.491
relative viability ([4]; first compound 50 µM): 0.497

EPLC-272H
relative viability ([1]; first compound 0.5 µM): 0.988
relative viability ([1]; first compound 1.581 µM): 0.879
relative viability ([1]; first compound 5 µM): 0.77
relative viability ([1]; first compound 15.81 µM): 0.877
relative viability ([1]; first compound 50 µM): 1.06
relative viability ([2]; first compound 0.5 µM): 0.188
relative viability ([2]; first compound 1.581 µM): 0.388
relative viability ([2]; first compound 5 µM): 0.264
relative viability ([2]; first compound 15.81 µM): 0.289
relative viability ([2]; first compound 50 µM): 0.33
relative viability ([3]; first compound 1.581 µM): 0.891
relative viability ([3]; first compound 5 µM): 0.94
relative viability ([3]; first compound 15.81 µM): 0.929
relative viability ([3]; first compound 50 µM): 0.73
relative viability ([4]; first compound 0.5 µM): 0.319
relative viability ([4]; first compound 1.581 µM): 0.403
relative viability ([4]; first compound 5 µM): 0.403
relative viability ([4]; first compound 15.81 µM): 0.321
relative viability ([4]; first compound 50 µM): 0.372

NCI-H2023
relative viability ([1]; first compound 0.5 µM): 0.793
relative viability ([1]; first compound 1.581 µM): 0.652
relative viability ([1]; first compound 5 µM): 0.691
relative viability ([1]; first compound 15.81 µM): 0.905
relative viability ([1]; first compound 50 µM): 0.994
relative viability ([2]; first compound 0.5 µM): 0.75
relative viability ([2]; first compound 1.581 µM): 0.657
relative viability ([2]; first compound 5 µM): 0.784
relative viability ([2]; first compound 15.81 µM): 0.899
relative viability ([2]; first compound 50 µM): 0.642
relative viability ([3]; first compound 0.5 µM): 0.566
relative viability ([3]; first compound 1.581 µM): 0.405
relative viability ([3]; first compound 5 µM): 0.501
relative viability ([3]; first compound 15.81 µM): 0.479
relative viability ([3]; first compound 50 µM): 0.466
relative viability ([4]; first compound 0.5 µM): 0.231
relative viability ([4]; first compound 1.581 µM): 0.209
relative viability ([4]; first compound 5 µM): 0.214
relative viability ([4]; first compound 15.81 µM): 0.227
relative viability ([4]; first compound 50 µM): 0.211

BEN
relative viability ([1]; first compound 0.5 µM): 0.704
relative viability ([1]; first compound 1.581 µM): 0.553
relative viability ([1]; first compound 5 µM): 0.609
relative viability ([1]; first compound 15.81 µM): 0.707
relative viability ([1]; first compound 50 µM): 0.891
relative viability ([2]; first compound 0.5 µM): 0.382
relative viability ([2]; first compound 1.581 µM): 0.331
relative viability ([2]; first compound 5 µM): 0.309
relative viability ([2]; first compound 15.81 µM): 0.311
relative viability ([2]; first compound 50 µM): 0.33
relative viability ([3]; first compound 0.5 µM): 0.843
relative viability ([3]; first compound 1.581 µM): 1.08
relative viability ([3]; first compound 5 µM): 1.04
relative viability ([3]; first compound 15.81 µM): 1.03
relative viability ([3]; first compound 50 µM): 1.02
relative viability ([4]; first compound 0.5 µM): 0.764
relative viability ([4]; first compound 1.581 µM): 0.649
relative viability ([4]; first compound 5 µM): 0.64
relative viability ([4]; first compound 15.81 µM): 0.75
relative viability ([4]; first compound 50 µM): 0.636

COR-L 105
relative viability ([1]; first compound 0.5 µM): 0.369
relative viability ([1]; first compound 1.581 µM): 0.37
relative viability ([1]; first compound 5 µM): 0.346
relative viability ([1]; first compound 15.81 µM): 0.318
relative viability ([1]; first compound 50 µM): 0.327
relative viability ([2]; first compound 0.5 µM): 0.883
relative viability ([2]; first compound 1.581 µM): 0.718
relative viability ([2]; first compound 5 µM): 0.579
relative viability ([2]; first compound 15.81 µM): 0.709
relative viability ([2]; first compound 50 µM): 0.882
relative viability ([3]; first compound 0.5 µM): 0.675
relative viability ([3]; first compound 1.581 µM): 0.612
relative viability ([3]; first compound 5 µM): 0.596
relative viability ([3]; first compound 15.81 µM): 0.519
relative viability ([3]; first compound 50 µM): 0.744
relative viability ([4]; first compound 0.5 µM): 0.669
relative viability ([4]; first compound 1.581 µM): 0.542
relative viability ([4]; first compound 5 µM): 0.588
relative viability ([4]; first compound 15.81 µM): 0.583
relative viability ([4]; first compound 50 µM): 0.605

ABC-1
relative viability ([1]; first compound 0.5 µM): 0.987
relative viability ([1]; first compound 1.581 µM): 1.09
relative viability ([1]; first compound 5 µM): 1.13
relative viability ([1]; first compound 15.81 µM): 1.43
relative viability ([1]; first compound 50 µM): 1.23
relative viability ([2]; first compound 0.5 µM): 0.495
relative viability ([2]; first compound 1.581 µM): 0.47
relative viability ([2]; first compound 5 µM): 0.668
relative viability ([2]; first compound 15.81 µM): 0.564
relative viability ([2]; first compound 50 µM): 0.785
relative viability ([3]; first compound 0.5 µM): 0.98
relative viability ([3]; first compound 1.581 µM): 0.889
relative viability ([3]; first compound 5 µM): 0.797
relative viability ([3]; first compound 15.81 µM): 0.847
relative viability ([3]; first compound 50 µM): 0.727
relative viability ([4]; first compound 0.5 µM): 1.15
relative viability ([4]; first compound 1.581 µM): 1.1
relative viability ([4]; first compound 5 µM): 1.09
relative viability ([4]; first compound 15.81 µM): 1.35
relative viability ([4]; first compound 50 µM): 0.906
